Assay results from patent US11555072B2, “A33 antibody compositions and methods of using the same in radioimmunotherapy” (MEMORIAL SLOAN KETTERING CANCER CENTER, priority 2017, dated 2023).

Columns and labels:
[1] = test system: GPA33-expressing cancer cells; experiment: T-cell dependent cytotoxicity (TDCC) assay with activated T cells; format: cell-based, human
Experimental: T-cell dependent cytotoxicity (TDCC) assays. Cytotoxicity assays were performed using both ^51Cr-release assay and Pierce LDH-release assay (Thermo Fisher Scientific, Cambridge, Mass.). For both assays, T cells activated by exposure to anti-CD3/anti-CD28 Dynabeads for 14 days were subsequently used as effector cells, excepted for sorted cells from PBMCs, which were used for TDCC assay without prior stimulation. ^51Cr assay was performed as previously described in Cheng M et al., International Journal of Cancer 136:476-486 (2015). LDH assay was conducted according to the manufacturer's instructions with the following modifications. Briefly, for each assay well of a 96-well round-bottom plate, 1.5×10^4 target cells were incubated with variable number of effector cells, depending on the intended E:T ratios. Antibodies were then added at different dilutions and the plates were incubated at 37° C. for 16 hours. Each condition was done in triplicates. Supernatant was then transferred to a flat bottom plate with reaction substrate and incubated for 30 min before reading at 490 nm, with 680 nm as a reference wavelength. EC50 values were calculated by fitting the curves to a 4-parameter nonlinear regression model using GraphPad Prism.
Cancer cells were incubated with activated T cells at an effector to target ratio of 10:1 in the presence of 10-fold serial dilutions of huA33-BsAb. GPA33(−) melanoma cell line SKMEL5 and […] cell line TC32 were used as negative controls. […] Maximal level of cytotoxicity seemed to correlate with the level of FACS staining (FIG. 1(D) and FIG. 4(A)). Moreover, TDCC induced by huA33-BsAb was potent, with EC50 values in the pM range.

LS174T tumors = experiment: s.c. LS174T xenograft with s.c. PBMCs; format: in vivo, mice; conditions: 6 doses over 3 weeks
Experimental: (§1) In vivo tumor therapy. For subcutaneous (s.c.) tumor models, LS174T, Colo205 or SNU16 cells were combined with fresh PBMCs at a 1:1 ratio, mixed with […]® (volume of cell:gel=1:2), and implanted (100 μl/mouse) at the flank of Balb/c Rag2^−/−IL2Rγ^−/− (DKO) mice (now commercially available from Taconic as CIEA BRG mice). Treatment started after confirmation of tumor presence with a BIW schedule at 100 μg/mouse and continued for 3-4 weeks. Tumor growth was monitored by weekly measurement of tumor volume using a caliper or a digital device Peira TM900 Scanner (Peira Scientific Instruments, Turnhout, Belgium).
HuA33-BsAb cured MSI tumor LSI74T in a s.c. xenograft model and suppressed tumor growth in an i.p. model. LS174T cells were mixed with PBMCs at a 1:1 ratio and implanted subcutaneously in DKO mice. […] Mice from tumor+PBMC group developed tumor ulceration and had to be euthanized.

T cells = experiment: Cytokines and cytolytic molecules release assay; format: cell-based, human; conditions: T cells + Colo205, E:T 5:1, over 4 days
Experimental: Cytokines and cytolytic molecules release assay. T cells were purified from PBMCs using pan T cell isolation kit (Miltenyi Biotec, Cambridge, Mass.). Target and control tumor cells were incubated with 2×10^6 cells/well at an effector to target ratio of 5:1 in 24-well plates in triplicates, with 2 ml total volume per well. Culture supernatants were collected at 24 hours, 48 hours, 72 hours and 96 hours and cytokine levels were measured with flow cytometry using LEGENDplex™ human CD8/NK Panel (BIOLEGEND®, San Diego, Calif.) according to the manufacturer's protocol.
HuA33-BsAb induced secretion of inflammatory cytokines and cytolytic molecules. The secreted cytokine profile of T cells activated by huA33-BsAb in the presence of target tumors was examined. Total T cells were purified from PBMCs and cultured in the presence of Colo205 tumor cells at an effector to target ratio of 5:1. To estimate nonspecific activation, SKMEL5 cells were used as a negative control. Cell culture supernatants were collected daily over 4 days and the levels of cytokines and cytotoxic molecules were measured using a flow cytometry based multiplex method. […] Similarly, a significant amount of IL-6 was secreted by activated T cells. Th17 cytokine IL-17a was also secreted at high levels.

Colo205 tumors = experiment: s.c. Colo205 xenograft with PBMCs; format: in vivo, mice
Experimental: as §1
HuA33-BsAb cured MSS tumor COLO205 in a s.c. xenograft model and suppressed tumor growth of metastatic MSS tumor SW1222. Two MSS colon cancer cell lines Colo205 and SW1222 were tested. For Colo205 cells, tumors were implanted subcutaneously with PBMCs as effector cells.

SW1222 tumor = experiment: i.p. SW1222 tumor model with i.v. T cells; format: in vivo, mice; conditions: 6 doses i.v. over 3 weeks, T cells weekly over 2 weeks
Experimental: For intraperitoneal (i.p.) tumor models, luciferase expressing LS174T-luc or SW1222-luc cells were resuspended in RPMI medium and injected intraperitoneally into DKO mice. Human effector cells were supplied as activated T cells and injected intravenously. Mice were treated with 2-3 weekly cycles of antibody-T cell-antibody regimen, with each component separated by 3-4 days. Growth of tumors was followed weekly by measuring luminescence signals on an IVIS Spectrum in vivo imaging system ([…]® Inc., Waltham, Mass.) after injection of 3.3 mg/mouse of luciferin. Luminescence was analyzed and quantified using Living Image Software ([…]®-Inc., Waltham, Mass.).
For the SW1222 cell line, tumors were planted intraperitoneally and treated with 6 doses of i.v. antibody over 3 weeks, and i.v. T cell weekly over 2 weeks. […] It is anticipated that additional treatment cycles will completely eradicate the growth of tumors, as in subcutaneous models.

SNU16 tumors = experiment: s.c. SNU16 gastric cancer xenograft with PBMCs; format: in vivo, mice; conditions: s.c. SNU16 mixed with human PBMCs
Experimental: as §1
HuA33-BsAb inhibited growth of gastric cancers in a s.c. xenograft model. GPA33 is expressed in a subset of gastric cancer cells. […] Unlike NSG mice, DKO mice were more resistant to engraftment of human PBMCs.

In the case of “huA33-BsAb: huA33 IgG with humanized OKT3 scFv fused to light chain C-terminus, N297A and K322A; SEQ ID NO: 19 and 21”, the “redirected T cell killing of GPA33-expressing cancer cells” value ([1]; LS174T, SW1222, Colo205, SNU16, activated T cells, E:T 10:1, 16 hours) is reported as “specifically kill all GPA33-expressing cancer cells”, the “redirected T cell killing of GPA33(−) control cells” value ([1]; SKMEL5 and TC32, E:T 10:1) is reported as “sparing SKMEL5 and TC32” and the “TDCC EC50 values” ([1]; activated T cells, E:T 10:1) is reported as “pM range”. For the same substance, the “time mice remained tumor free” value (LS174T tumors) was “at least 120 days”, the tumor response (LS174T tumors) was “effectively cured the mice” and the “release of cytotoxic components (sFasL, sFas, Granzyme A, Granzyme B, Perforin, Granulysin)” value (T cells) was “all released in the supernatant”. The “secretion of cytokines by activated T cells” value (T cells) was “both Th1 cytokines (IL-2, IFNγ, TNFα) and Th2 cytokines (IL-4, IL-10) were secreted by activated T cells”, the tumor response (Colo205 tumors; 4 doses) was “completely eradicate Colo205 tumors” and the “time mice remained tumor free” value (Colo205 tumors; after a total of 6 doses) was “at least 4 months”. For the same substance, the “tumor growth and survival” value (SW1222 tumor) was “suppressed tumor growth and significantly prolonged mice survival”, the survival (SNU16 tumors) was “significantly prolonged survival” and the tumor response (SNU16 tumors) was “effectively cured the mice harboring s.c. tumors”.
